Experimental data taken from patent US7825226B2, “Glycoprotein synthesis” (The Scripps Research Institute, priority 2002, dated 2010).

Legend:
[1] = system: E. coli DH10B cells; test: growth rate of cells grown with the unnatural amino acid; conditions: 1 mM; cells transformed with mutRNACUA^Tyr, LW1RS and Z domain gene (Lys7TAG)
Protocol: E. coli DH10B cells cotransformed with pLEIZ and pBK-LW1RS were grown in minimal media containing 1% glycerol and 0.3 mM leucine (GMML media) with 25 μg/mL kanamycin, 34 μg/mL of chloramphenicol, and 1.0 mM p-acetyl-(±)-phenylalanine.
Cells transformed with the mutRNACUA^Tyr, LW1RS and Z domain gene (Lys7TAG) were grown in the presence of 1 mM p-acetyl-(±)-phenylalanine.

[2] = system: Bandeiraea simplicifolia II (BSII); test: ELISA-like assay of binding of a GlcNAc-specific lectin; conditions: 200 ng immobilized protein, absorbance at 405 nm
Protocol: Several additional experiments were performed to further characterize the mutant myoglobin. First, an ELISA-like assay was used to analyze the binding of a GlcNAc-specific lectin, Bandeiraea simplicifolia II (BSII) (see, e.g., S. Ebisu, et al., (1978), Carbohydr. Res. 61:129), to wild-type myoglobin and glyco-myoglobin. See FIG. 6, Panel A. FIG. 6, Panel A illustrates binding of a GlcNAc-specific lectin, Banderiraea simplicifolia II (BSII), to wild-type myoglobin and glycomyoglobin. A405 values are shown for wild-type myoglobin, glycomyoglobin, and negative control (no lectin added). Gly4→Compound A mutant myoglobin (200 ng) and wild type myoglobin (200 ng) were immobilized in microtiter plate wells and subsequently incubated with biotinylated BSII and streptavidin-alkaline phosphatase conjugate. Wells were incubated with p-nitrophenyl phosphate and monitored by measuring the absorbance at 405 nm. The two forms of myoglobin were immobilized in microtiter plate wells and then incubated with biotinylated BSII, streptavidin-alkaline phosphatase conjugate, and p-nitrophenyl phosphate, respectively.
(§1) Expression and characterization of mutant myoglobin. […] Proteins were analyzed by 12% SDS-PAGE and silver-stained. […]

[3] = target: T1, bovine milk galactosyltransferase (Bos taurus, UniProt P08037); test: on-blot galactosyltransferase labeling with UDP-[H^3]galactose; format: biochemical; conditions: 1 μg protein on PVD membrane, 24 hours at room temperature
T1 construct: from tissue; host or cells: bovine milk
T1 sequence (P08037 79-402 limits assumed): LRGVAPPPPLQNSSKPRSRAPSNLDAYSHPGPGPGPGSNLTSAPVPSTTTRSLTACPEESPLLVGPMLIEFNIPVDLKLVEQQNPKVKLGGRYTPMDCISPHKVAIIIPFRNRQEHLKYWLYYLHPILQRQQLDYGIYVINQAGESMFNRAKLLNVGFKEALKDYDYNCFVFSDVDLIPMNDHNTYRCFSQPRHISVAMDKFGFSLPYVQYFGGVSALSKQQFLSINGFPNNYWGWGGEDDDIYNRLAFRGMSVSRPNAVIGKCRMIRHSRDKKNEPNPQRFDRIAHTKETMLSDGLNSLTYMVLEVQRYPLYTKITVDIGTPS
Excerpt: We also investigated whether the O-GlcNAc-serine residue in myoglobin could be selectively modified with a galactosyltransferase. Beta-1,4-galactosyltransferase is known to transfer galactose (Gal) from the sugar nucleotide UDP-Gal to the 4 position of an N-acetylglucosamine (GlcNAc) to form Galβ1,4GlcNAc. To determine if the O-glycosylated myoglobin can be modified with UDP-Gal, both wild-type and O-glycosylated myoglobin were resolved by SDS-PAGE and transferred to a PVD membrane. The membrane was then incubated with bovine milk galactosyltransferase and radioactive UDP-[H^3]-galactose at room temperature for 24 hours. See, e.g., K. Kamemura, et al., (2002), J. Biol. Chem. 277:19229. Incorporation of [H^3]-Gal was monitored by exposing the membrane to X-ray film. […] See FIG. 6, Panel B. FIG. 6, Panel B illustrates on-blot galactosyltransferase labeling glycomyoglobin with UDP-[H^3]galactose. Wild type myoglobin (1 μg) and Gly4→Compound A mutant myoglobin (1 μg) were resolved by 12% SDS-PAGE and transferred to a PVD membrane. The membrane was then treated with bovine milk galactosyltransferase (1 U), UDP-[H^3]galactose (0.5 μCi) and calf intestinal alkaline phosphatase (1 U) for 24 hours at room temperature. […]
as §1

Row | Molecule | effect on growth rate of cells [1] | lectin binding signal (A405) [2] | incorporation of [H^3]-Gal (X-ray film) [3]
1 | CC(=O)c1ccc(CC(N)C(=O)O)cc1 (racemic) [p-acetyl-(±)-phenylalanine] | did not affect the growth rate of cells | – | –
2 | wild-type myoglobin: wild-type myoglobin used for comparison | – | signal equivalent to negative control wells | no detectable signal
